Assay results taken from ChEMBL document CHEMBL1201862, “PubChem BioAssay data set” (2004).
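In this assay, cells in 96-well plates receive the compound at five concentrations for 48 hours. Endpoints are linearly interpolated between the surrounding concentrations. GI50 = concentration required for 50% inhibition of growth.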 Activity calls are given as the source filed them. Rule as the data show it: active = GI50 up to about 1.1 µM and inactive = higher.

Assays:
Experiment in all cases: DTP human tumour cell line panel, 48 h
[1] = system: NCI-H460
[2] = system: MDA-MB-231
[3] = system: NCI-H226
[4] = system: HOP-92
[5] = system: SNB-19
[6] = system: TK-10
[7] = system: SF-539
[8] = system: SR
[9] = system: Malme-3M
[10] = system: HCC 2998
[11] = system: RPMI-8226
[12] = system: OVCAR-5
[13] = system: HL-60
[14] = system: M14
[15] = system: SW-620
[16] = system: K562
[17] = system: SF-295
[18] = system: NCI-H522
[19] = system: EKVX
[20] = system: RXF 393

Measured: GI50

Cc1ccc(-c2nc(N/N=C/c3ccc(O)cc3)c3ccccc3n2)cc1
inactive: [1] 9.91 µM | [2] 19.4 µM | [3] 21.5 µM | [4] 32.4 µM | [5] 26.6 µM | [6] 24.3 µM | [7] 27.3 µM | [8] 39.4 µM | [9] 13.8 µM | [10] 14.1 µM | [11] 40.7 µM | [12] 20.3 µM | [13] 17.2 µM | [14] 5.02 µM | [15] 19 µM | [16] 22.8 µM | [17] 17.9 µM | [18] 14.2 µM | [19] 3.98 µM | [20] 21 µM

CN(C)Cc1cc(/N=N/c2ccccc2Cl)cc(CN(C)C)c1O
inactive: [1] 47.2 µM | [2] 98.4 µM | [3] > 100 µM | [4] 21.5 µM | [5] > 100 µM | [6] > 100 µM | [7] > 100 µM | [8] 45.2 µM | [9] > 10 µM | [10] 48.2 µM | [11] > 100 µM | [12] 46.9 µM | [13] 20.8 µM | [14] 29.4 µM | [15] 90.2 µM | [16] 37.5 µM | [17] 44.7 µM | [18] 12.3 µM | [19] > 100 µM | [20] 31.6 µM
